In PubChem BioAssay (NCI):
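Following 48 hours of exposure in 96-well plates, responses at five concentrations were used to interpolate endpoints linearly. GI50 = concentration required for 50% inhibition of growth. TGI denotes the concentration required for complete inhibition of growth.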

Assays:
Test in all cases: inhibition of tumour cell growth, NCI panel, 48 h
CAKI-1 renal = system: CAKI-1 renal
OVCAR-3 ovarian = system: OVCAR-3 ovarian
NCI-H522 lung = system: NCI-H522 lung
SK-MEL-5 melanoma = system: SK-MEL-5 melanoma
HOP-92 NSCLC = system: HOP-92 NSCLC
DMS 273 small cell lung = system: DMS 273 small cell lung
SN12C renal = system: SN12C renal
HOP-62 NSCLC = system: HOP-62 NSCLC
KM20L2 colon = system: KM20L2 colon
CCRF-CEM leukemia = system: CCRF-CEM leukemia
OVCAR-5 ovarian = system: OVCAR-5 ovarian

Row | Compound | TGI (CAKI-1 renal) [µM] | TGI (OVCAR-3 ovarian) [µM] | TGI (NCI-H522 lung) [µM] | TGI (SK-MEL-5 melanoma) [µM] | TGI (HOP-92 NSCLC) [µM] | TGI (DMS 273 small cell lung) [µM] | TGI (SN12C renal) [µM] | TGI (HOP-62 NSCLC) [µM] | TGI (KM20L2 colon) [µM] | TGI (CCRF-CEM leukemia) [µM] | TGI (OVCAR-5 ovarian) [µM] | GI50 (CAKI-1 renal) [µM] | GI50 (OVCAR-3 ovarian) [µM] | GI50 (NCI-H522 lung) [µM] | GI50 (SK-MEL-5 melanoma) [µM] | GI50 (HOP-92 NSCLC) [µM] | GI50 (SN12C renal) [µM] | GI50 (HOP-62 NSCLC) [µM] | GI50 (CCRF-CEM leukemia) [µM] | GI50 (OVCAR-5 ovarian) [µM]
1 | Cn1c(=O)c2nc(NCCO)cnc2n(C)c1=O | > 100 | 57.9 | 46.4 | > 100 | > 100 | > 100 | > 100 | > 100 | > 100 | > 100 | > 100 | – | – | – | – | – | – | – | – | –
2 | Cc1c(N=NN(C)C)cc[n+]([O-])c1C | > 100 | > 100 | > 100 | > 100 | > 100 | > 100 | > 100 | > 100 | > 100 | > 100 | > 100 | – | – | – | – | – | – | – | – | –
3 | CCCCS(=O)CC(CO)NC(=O)/C=C/c1c(C)[nH]c(=O)[nH]c1=O (stereo not drawn) | 114 | 15 | 21.4 | 21.5 | 101 | 52.7 | 49 | 45 | 56.8 | 51 | 89.8 | – | – | – | – | – | – | – | – | –
4 | CC(C)[C@](O)(C(=O)OCC1=CCN2CC[C@@H](O)[C@@H]12)[C@H](C)O | > 375 | > 375 | > 375 | > 80.8 | > 375 | > 375 | > 375 | > 375 | > 375 | > 375 | > 375 | – | – | – | – | – | – | – | – | –
5 | O=C(c1ccccc1)c1nn(-c2ccccc2)c2nc3nc(-c4ccccc4)cc(=O)n3nc12 | > 100 | 49.5 | 58.5 | 27.1 | 78.3 | – | 53.2 | > 100 | – | – | – | 68 | 19.9 | 20.6 | 13.6 | 24.6 | 22.7 | 38 | – | –
6 | COC(=O)C1C(O)C(C)C(O)OC1C(C)C(O)C(C)/C=C\C=C(/C)C(=O)Nc1c(C)c(OC(C)=O)c2c(c1O)C(=O)C(C)=C1OCOC(/C(C)=C/C(C)=O)=C12 (stereo not drawn) | 34 | 20.5 | 7.74 | 23.5 | 22.3 | 25 | 21.5 | 23.5 | 24.4 | 34.4 | 25 | – | – | – | – | – | – | – | – | –
7 | O=C1CSC(C(N=Nc2ccc(Cl)cc2)c2nc3ccccc3[nH]2)=N1 (stereo not drawn) | > 100 | > 100 | 71.1 | 88.4 | > 100 | > 100 | > 100 | > 100 | > 100 | > 100 | > 100 | – | – | – | – | – | – | – | – | –
8 | C[C@]12CCc3sc(-c4cccc(F)c4)nc3C1=CC[C@@H]1[C@@H]2CC[C@]2(C)C(=O)CC[C@@H]12 | 3.76 | 3.79 | 6.35 | 16.9 | 5.63 | – | > 100 | 11.8 | – | 9.58 | 18.5 | 1.87 | 1.92 | 2.4 | 4.05 | 2.44 | 3.01 | 3.1 | 2.45 | 2.68
